Results published in patent US20250248979A1, “NOVEL GPX4 INHIBITORS AND USES THEREOF” (THE TRUSTEES OF COLUMBIA UNIVERSITY IN THE CITY OF NEW YORK, priority 2022, published 2025).
≈ marks a conversion by molar mass, not a printed value. Read-outs that look alike come from different tables or passages of the source.

What was measured:
in vitro [1] = type: in vitro ADME, mouse
Protocol: (§1) […]. The incubation timepoints measured were 0, 5, 10, 15, 30, and 45 minutes. All samples were prepared in duplicate and analyzed by LC-MS/MS.

in vitro [2] = type: in vitro ADME, human
Protocol: as §1

[3] = Kinetic aqueous solubility; conditions: aqueous solubility; Table 9
GPX4 = molecular target: T1, GPX4 (Homo sapiens, UniProt P36969); assay: GPX4 activity assay in cell lysates (NADPH-coupled); type: biochemical; parameters: endogenous in cells; host or cells: A-673 cell lysate; conditions: for GPX4% inhibition at 200 (μM) / GPX4 inhibition: 200 μM
T1 sequence (P36969 1-170 isoform P36969-2): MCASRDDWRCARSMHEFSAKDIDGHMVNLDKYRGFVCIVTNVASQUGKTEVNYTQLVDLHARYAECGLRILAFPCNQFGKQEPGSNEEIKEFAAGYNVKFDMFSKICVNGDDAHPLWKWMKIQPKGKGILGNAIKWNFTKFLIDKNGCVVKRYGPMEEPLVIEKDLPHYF
In short: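 Native GPX4 in lysates of A-673 cells grown with 20 nM sodium selenite; lysate preincubated with compound 45 min at 37 °C in pH 8.0 buffer with 3 mM GSH, 0.5 mM NADPH and glutathione reductase. Reaction started with phosphatidylcholine hydroperoxide; NADPH consumption followed at 340 nm over 25 min; triplicates.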

HT-1080 cells = assay: Cellular dose response assay, HT-1080 with and without Fer-1; type: cell-based, human
In short: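 Cells were seeded at 1500 per well, grown overnight, then treated in triplicate with 12-point 2-fold compound dilutions (0.4% DMSO final) for 48 h at 37 °C, 5% CO2. HT-1080 series were run with and without Fer-1. Viability was read by CellTiter-Glo luminescence.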

HepG2 cells = assay: Cellular dose response assay, HepG2; type: cell-based, human
Text: (§2) HT-1080 (human [Homo sapiens] […] fibrosarcoma), A-673 (human [Homo sapiens] […] Ewing's sarcoma), and SK-HEP-1 (human [Homo sapiens] […] hepatic adenocarcinoma), cells were obtained from ATCC. Huh7 (human [Homo sapiens] […] hepatocellular carcinoma), HLF (human [Homo sapiens] […] hepatocellular carcinoma), HepG2 (human [Homo sapiens] […] hepatocellular carcinoma), cells were obtained from the Cancer Cell Bank at Columbia University Irving Medical Center. HT-1080, A-673, Huh-7, and HLF cells were grown in Dulbecco's Modified Eagle Medium (DMEM) supplemented with 10% heat inactivated fetal bovine serum (HI-FBS), 1% non-essential amino acids, and 1% penicillin streptomycin. HepG2 and SK-HEP-1 cells were grown in Eagle's Minimum Essential Medium (EMEM) supplemented with 10% HI-FBS, and 1% penicillin-streptomycin. All cells were cultured at 37° C. and 5% CO2.
(§3) HT-1080, HepG2, Huh7, HLF, and SK-HEP-1 cells were seeded into opaque white 384-well plates at 1500 cells per well then incubated at 37° C. with 5% CO2 overnight. The next day, compounds of interest were dissolved in DMSO and 12-point 2-fold dilution series were prepared with and without Fer-1. Cells were treated in triplicate (final DMSO concentration of 0.4% in all wells, including DMSO-only control wells) and incubated for a further 48 hours at 37° C. and 5% CO2. Cell viability was evaluated using CellTiter-Glo (Promega G7573) and luminescence was recorded on a Victor 5 plate reader. Data were analyzed in GraphPad Prism 9 and error bars represent standard deviation values for three technical replicates in a representative experiment.

HLF cells = assay: Cellular dose response assay, HLF; type: cell-based, human; conditions: Table 7
Text: as §2, §3

Huh7 cells = assay: Cellular dose response assay, Huh7; type: cell-based, human; conditions: Table 7
Text: as §2, §3

SK-HEP-1 cells = assay: Cellular dose response assay, SK-HEP-1; type: cell-based, human; conditions: Table 7
Text: as §2, §3

[4] = generation 1, mean ± s.d., n = 3
[5] = compounds alone, Table 7, read-out: IC50 (uM) HT1080^a
[6] = with fer-1, Table 7, read-out: IC50 (uM) HT1080^b
[7] = compounds alone, read-out: IC50 (uM) HLF^a
[8] = with fer-1, read-out: IC50 (uM) HLF^b
[9] = compounds alone, read-out: IC50 (uM) Huh7^a
[10] = with fer-1, read-out: IC50 (uM) Huh7^b
[11] = compounds alone, read-out: IC50 (uM) SKHEP1^a
[12] = with fer-1, read-out: IC50 (uM) SKHEP1^b
[13] = compounds alone, Table 7, read-out: IC50 (uM) HEPG2^a
[14] = with fer-1, Table 7, read-out: IC50 (uM) HEPG2^b

| Structure (SMILES) | GPX4% inhibition at 200 (μM) (GPX4; [4]) [%] | IC50 (HT-1080 cells; [5]) [µM] | IC50 (HT-1080 cells; [6]) [µM] | IC50 (HLF cells; [7]) [µM] | IC50 (HLF cells; [8]) [µM] | IC50 (Huh7 cells; [9]) [µM] | IC50 (Huh7 cells; [10]) [µM] | IC50 (SK-HEP-1 cells; [11]) [µM] | IC50 (SK-HEP-1 cells; [12]) [µM] | IC50 (HepG2 cells; [13]) [µM] | IC50 (HepG2 cells; [14]) [µM] | GPX4 inhibition (GPX4) | GPX4% inhibition at 200 (μM) (GPX4; generation 2) [%] | Solubility [3] [µM] | further results |
| --- | --- | --- | --- | --- | --- | --- | --- | --- | --- | --- | --- | --- | --- | --- | --- |
| COc1ccc(N(C(=O)CCl)C(C(=O)NCCc2ccccc2)c2cccs2)cc1Cl (centres unmarked) [ML162, reference compound] |  |  |  |  |  |  |  |  |  |  |  |  |  | 3.8 (≈ 1.81 µg/mL) | Microsome Stability t1/2 (min) mouse (in vitro [1]; mouse liver microsomes): 1.5 min; Microsome Stability t1/2 (min) human (in vitro [2]; human liver microsomes): 0.9 min |
| O=C(Nc1c[nH]c2ccccc12)n1ccnc1 [QW-065] |  |  |  |  |  |  |  |  |  |  |  |  |  |  | GPX4% inhibition at 200 (μM) (GPX4; mean ± s.d., n = 3): 32.4 ± 2.4%; IC50 (HT-1080 cells; compounds alone, read-out: IC50 (μM) HT1080^a): > 400 µM; IC50 (HT-1080 cells; compounds and fer-1 1.0 μM, read-out: IC50 (μM) HT1080^b): > 400 µM; IC50 (HepG2 cells; compounds alone, read-out: IC50 (μM) HEPG2^a): > 400 µM; IC50 (HepG2 cells; compounds and fer-1 1.0 μM, read-out: IC50 (μM) HEPG2^b): > 400 µM |
| CC(C)(COC(=O)CBr)NC(=O)c1cc2cc([N+](=O)[O-])ccc2[nH]1 [QW-171] | 83.9 ± 16.8 |  |  |  |  |  |  |  |  |  |  |  |  | 56 (≈ 22.3 µg/mL) | Microsome Stability t1/2 (min) mouse (in vitro [1]; mouse, microsomes): 283 min; Microsome Stability t1/2 (min) human (in vitro [2]; human, microsomes): 187 min |
| CC(C)(COC(=O)CCl)NC(=O)c1c[nH]c2cc(Br)ccc12 [QW-316] | 87.2 ± 9.2 |  |  |  |  |  |  |  |  |  |  |  |  | 71 (≈ 27.5 µg/mL) | Microsome Stability t1/2 (min) mouse (in vitro [1]; mouse, microsomes): 6 min; Microsome Stability t1/2 (min) human (in vitro [2]; human, microsomes): 24 min |

Continued, in another order:

| GPX4% inhibition at 200 (μM) (GPX4; [4]) [%] | IC50 (HT-1080 cells; [5]) [µM] | IC50 (HT-1080 cells; [6]) [µM] | IC50 (HLF cells; [7]) [µM] | IC50 (HLF cells; [8]) [µM] | IC50 (Huh7 cells; [9]) [µM] | IC50 (Huh7 cells; [10]) [µM] | IC50 (SK-HEP-1 cells; [11]) [µM] | IC50 (SK-HEP-1 cells; [12]) [µM] | IC50 (HepG2 cells; [13]) [µM] | IC50 (HepG2 cells; [14]) [µM] | GPX4 inhibition (GPX4) | GPX4% inhibition at 200 (μM) (GPX4; generation 2) [%] | Structure (SMILES) | Solubility [3] [µM] | further results |
| --- | --- | --- | --- | --- | --- | --- | --- | --- | --- | --- | --- | --- | --- | --- | --- |
| 88.7 ± 2.3 | 4 | 6.1 | 2.5 | 5.7 | 6.3 | 16.8 | 5.1 | 17.1 | 4.7 | 12.7 |  |  | COc1ccc2cc(C(=O)NCC(C)(C)COC(=O)CBr)[nH]c2c1 [QW-303] |  |  |
| 88.6 ± 3.1 | 1.9 | 5 | 0.7 | 4.3 | 3.8 | 26.1 | 2.3 | 10.9 | 1.9 | 7.2 |  |  | O=C(CBr)OCCCNC(=O)c1cc2cc(Cl)ccc2[nH]1 [QW-305] |  |  |
| 99.6 ± 3.2 | 8.5 | 26 | 4.1 | 27.8 | 4.5 | 32.4 | 3.9 | 32.7 | 7.5 | 27.3 |  |  | CC(C)(COC(=O)CCl)NC(=O)c1[nH]c2ccccc2c1Br [QW-348] |  |  |
|  | 3.1 | 58.3 | 1.1 | 60.9 | 2.5 | 112 | 0.8 | 81 | 6.7 | 73.5 | complete inhibition | 105.7 ± 2.5 | Cn1nc(C(=O)NC(C)(C)COC(=O)CCl)c2cc(Br)ccc21 [QW-356] |  | GPX4 inhibitory activity, result in words (GPX4): significant improvement on GPX4 inhibition over QW-314 and RSL3 |
|  | 9.1 | 40.1 | 2.9 | 36.4 | 3.5 | 58.7 | 3.8 | 50 | 9.2 | 55.7 | complete inhibition | 104.8 ± 1.9 | CC(C)(COC(=O)CCl)NC(=O)c1nn(-c2ccccc2)c2ccccc12 [QW-357] |  |  |
|  | 12.7 | 46.7 | 6.7 | 27.1 | 9.1 | 175 | 3.5 | 44.4 | 24.8 | 40.3 | complete inhibition | 101.9 ± 1.5 | Cn1nc(C(=O)NC(C)(C)COC(=O)CCl)c2cccc(OC(=O)CCl)c21 [QW-360] |  |  |
